Format in all cases: ADME, organism-based
Conditions in all cases: in vivo

The nature of series [1]: Tmax in Wistar Han rat at 3 mg/kg, po measured after 24 hours by UPLC-MS/MS analysis.
Series [2] can be described thus: Half life in Wistar Han rat at 3 mg/kg, po measured after 24 hours by UPLC-MS/MS analysis.
Series [3] in a line: Cmax in Wistar Han rat at 3 mg/kg, po measured after 24 hours by UPLC-MS/MS analysis. More on the design: route oral, dose 3 mg/kg, time 24 hrs.
Series [4] is described as follows: Oral bioavailability in Wistar Han rat at 3 mg/kg measured after 24 hours by UPLC-MS/MS analysis.

The values that follow come from ChEMBL document CHEMBL5036343, “Discovery and development of CPL207280 as new GPR40/FFA1 agonist” (Eur J Med Chem, 2021).

Structures are written as SMILES.

Broadly, the Tmax is the time at which the peak concentration occurs. Usually half-life stands for the time needed for the level to fall by half in the phase considered. A lower half-life goes with rapid decline. The term Cmax denotes the highest concentration seen after dosing. As usually defined, the bioavailability is dose-corrected exposure relative to a reference, in per cent. Higher therefore signals much systemic uptake.

Regarding `Cc1cc(OCCCS(C)(=O)=O)cc(C)c1-c1cccc(COc2ccc3c(c2)OC[C@H]3CC(=O)O)c1`, in series [1], the Tmax came out at 2 h. Besides, the half-life in series [2] is 2.9 h. For the same molecule, the highest concentration (Cmax) in series [3] was found to be 1830 ng/mL. In series [4], this molecule registered a bioavailability of 36%.

Regarding `CC#C[C@@H](CC(=O)O)c1ccc(OCC(C)=C(C)C)cc1`, in series [1], the time to peak (Tmax) amounted to 1 h. In series [2], the half-life is 1.41 h. Besides, the Cmax in series [3] came to 1700 ng/mL. Moreover, the bioavailability in series [4] is 65%.
